From PubChem BioAssay AID330 (DTP/NCI, 2004)
Values joined by “and” are separate entries in the source; they are usually repeats but may differ in a detail not shown here. Equal values may be shown once. Inconclusive results and toxic doses are left out.

Tested on: P388 leukemia ip, CD2F1 mice, survival T/C
Experiment: NCI In Vivo Anticancer Drug Screen. Data for tumor model P388 Leukemia (intraperitoneal) in CD2F1 (CDF1) mice
Conditions: endpoint: median survival time, higher = longer survival
Summary of the method: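 Mice carrying the transplanted tumor received test compound or vehicle. Survival was recorded in each group, and the value is the treated-group measurement divided by that of the vehicle-treated control group.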

[1] = dose: 50.0 mg/kg/injection, schedule: Q04DX003 (ip), vehicle: saline
[2] = dose: 100.0 mg/kg/injection, schedule: Q04DX003 (ip), vehicle: saline
[3] = dose: 200.0 mg/kg/injection, schedule: Q04DX003 (ip), vehicle: saline
[4] = dose: 50.0 mg/kg/injection, schedule: Q01DX009 (ip), vehicle: saline with Tween-80
[5] = dose: 100.0 mg/kg/injection, schedule: Q01DX009 (ip), vehicle: saline with Tween-80
[6] = dose: 200.0 mg/kg/injection, schedule: Q01DX009 (ip), vehicle: saline with Tween-80
[7] = dose: 50.0 mg/kg/injection, schedule: Q01DX005 (ip), vehicle: saline with Tween-80
[8] = dose: 100.0 mg/kg/injection, schedule: Q01DX005 (ip), vehicle: saline with Tween-80
[9] = dose: 200.0 mg/kg/injection, schedule: Q01DX005 (ip), vehicle: saline with Tween-80
[10] = dose: 60.0 mg/kg/injection, schedule: Q01DX005 (ip), vehicle: Klucel (hydroxypropylcellulose) (HPC)
[11] = dose: 120.0 mg/kg/injection, schedule: Q01DX005 (ip), vehicle: Klucel (hydroxypropylcellulose) (HPC)
[12] = dose: 240.0 mg/kg/injection, schedule: Q01DX005 (ip), vehicle: Klucel (hydroxypropylcellulose) (HPC)
[13] = dose: 100.0 mg/kg/injection, schedule: Q04DX003 (ip), vehicle: saline with Tween-80
[14] = dose: 50.0 mg/kg/injection, schedule: Q01DX005 (ip), vehicle: Klucel (hydroxypropylcellulose) (HPC)
[15] = dose: 100.0 mg/kg/injection, schedule: Q01DX005 (ip), vehicle: Klucel (hydroxypropylcellulose) (HPC)
[16] = dose: 50.0 mg/kg/injection, schedule: Q01DX009 (ip), vehicle: saline
[17] = dose: 100.0 mg/kg/injection, schedule: Q01DX009 (ip), vehicle: saline
[18] = dose: 60.0 mg/kg/injection, schedule: Q01DX005 (ip), vehicle: saline with Tween-80
[19] = dose: 120.0 mg/kg/injection, schedule: Q01DX005 (ip), vehicle: saline with Tween-80
[20] = dose: 240.0 mg/kg/injection, schedule: Q01DX005 (ip), vehicle: saline with Tween-80

SMILES: CC(=O)N(CC1CNc2nc(N)[nH]c(=O)c2N1)c1ccc(C(=O)NC(CCC(=O)O)C(=O)O)cc1 (centres undefined)
- T/C [1]: 98 % of control
- T/C [2]: 102 % of control
- T/C [3]: 95 % of control

SMILES: CN(/N=C/c1ccc(N(C)C)cc1)C(=O)c1ccccc1N
- T/C [4]: 100 % of control
- T/C [5]: 93 % of control
- T/C [6]: 94 % of control

SMILES: CCN(CC)CCNC1CC(C)CC(C)(C)C1 (centres undefined)
- T/C [7]: 103 % of control
- T/C [8]: 101 % of control

SMILES: Cn1cccc1/C=N/N1CC(=O)N(c2ccccc2)CC1=O
- T/C [7]: 108 % of control
- T/C [8]: 100 % of control

SMILES: CCCCc1ccc(Nc2ccc(Nc3ccc(CCCC)cc3S(=O)(=O)O)c3c2C(=O)c2ccccc2C3=O)c(S(=O)(=O)O)c1
- T/C [4]: 94 % of control
- T/C [5]: 90 % of control
- T/C [6]: 94 % of control

SMILES: CCOC(=O)C(c1ccccc1)C(CC=C(C)C)(C(C)=O)C(=O)OC (centres undefined)
- T/C (dose: 100.0 mg/kg/injection, schedule: Q04DX002 (ip), vehicle: saline with Tween-80): 103 % of control
- T/C (dose: 200.0 mg/kg/injection, schedule: Q04DX002 (ip), vehicle: saline with Tween-80): 103 % of control
- T/C (dose: 400.0 mg/kg/injection, schedule: Q04DX002 (ip), vehicle: saline with Tween-80): 105 % of control

SMILES: O=C(CCN1CC1)Nc1ccc(NC(=O)CCN2CC2)cc1
- T/C (dose: 10.0 mg/kg/injection, schedule: Q04DX003 (ip), vehicle: Klucel (hydroxypropylcellulose) (HPC)): 198 % of control
- T/C (dose: 20.0 mg/kg/injection, schedule: Q04DX003 (ip), vehicle: Klucel (hydroxypropylcellulose) (HPC)): 227 % of control

SMILES: c1ccc2sc(CN(Cc3nc4ccccc4s3)Cc3nc4ccccc4s3)nc2c1
- T/C [7]: 103 % of control
- T/C [8]: 101 % of control
- T/C [9]: 100 % of control

SMILES: CN(N=O)N1C(=O)SCC(c2ccccc2)(c2ccccc2)C1=O
- T/C [10]: 97 % of control
- T/C [11]: 90 % of control
- T/C [12]: 88 % of control

SMILES: COC1=C(OC)C(=O)C2=C(OCCCO2)C1=O
- T/C (dose: 60.0 mg/kg/injection, schedule: Q01DX001 (ip), vehicle: saline with Tween-80): 105 % of control
- T/C (dose: 200.0 mg/kg/injection, schedule: Q01DX001 (ip), vehicle: saline with Tween-80): 105 % of control
- T/C (dose: 400.0 mg/kg/injection, schedule: Q01DX001 (ip), vehicle: saline with Tween-80): 101 % of control

SMILES: COc1ccc(Cc2cc(C(C)(C)C)cc(C(C)(C)C)c2O)cc1
- T/C (dose: 50.0 mg/kg/injection, schedule: Q01DX005 (ip), vehicle: distilled water + alcohol): 96 % of control
- T/C (dose: 100.0 mg/kg/injection, schedule: Q01DX005 (ip), vehicle: distilled water + alcohol): 96 % of control
- T/C (dose: 200.0 mg/kg/injection, schedule: Q01DX005 (ip), vehicle: distilled water + alcohol): 95 % of control

SMILES: C(=C\c1ccccc1)/C[P+](c1ccccc1)(c1ccccc1)c1ccccc1
- T/C (dose: 0.62 mg/kg/injection, schedule: Q01DX009 (ip), vehicle: saline): 90 % of control
- T/C (dose: 0.63 mg/kg/injection, schedule: Q01DX009 (ip), vehicle: saline with Tween-80): 100 % of control
- T/C (dose: 1.25 mg/kg/injection, schedule: Q01DX009 (ip), vehicle: saline with Tween-80): 122 % of control
- T/C (dose: 1.25 mg/kg/injection, schedule: Q01DX009 (ip), vehicle: saline): 93 % of control
- T/C (dose: 2.5 mg/kg/injection, schedule: Q01DX009 (ip), vehicle: saline with Tween-80): 109 % of control
- T/C (dose: 2.5 mg/kg/injection, schedule: Q01DX009 (ip), vehicle: saline): 90 % of control
- T/C (dose: 5.0 mg/kg/injection, schedule: Q01DX009 (ip), vehicle: saline): 98 % of control

SMILES: ClC1=CC(Cl)=C2N=C(C(Cl)(Cl)Cl)N=C3N=C(C(Cl)(Cl)Cl)N=C1N32
- T/C (dose: 15.0 mg/kg/injection, schedule: Q01DX005 (ip), vehicle: Klucel + Tween-80): 101 % of control
- T/C (dose: 30.0 mg/kg/injection, schedule: Q01DX005 (ip), vehicle: Klucel + Tween-80): 95 % of control
- T/C (dose: 60.0 mg/kg/injection, schedule: Q01DX005 (ip), vehicle: Klucel + Tween-80): 99 % of control and 100 % of control

SMILES: Cc1ccc(Cl)cc1N=Cc1ccccc1O
- T/C [13]: 100 % of control
- T/C (dose: 200.0 mg/kg/injection, schedule: Q04DX003 (ip), vehicle: saline with Tween-80): 95 % of control
- T/C (dose: 400.0 mg/kg/injection, schedule: Q04DX003 (ip), vehicle: saline with Tween-80): 100 % of control

SMILES: CC(C)=NN/C=N/S(C)(=O)=O
- T/C (dose: 100.0 mg/kg/injection, schedule: Q04DX002 (ip), vehicle: saline): 105 % of control
- T/C (dose: 200.0 mg/kg/injection, schedule: Q04DX002 (ip), vehicle: saline): 104 % of control
- T/C (dose: 400.0 mg/kg/injection, schedule: Q04DX002 (ip), vehicle: saline): 104 % of control

SMILES: O=C1CCC(=O)N1CN(CS(=O)(=O)c1ccc(Cl)cc1)c1ccc(Cl)cc1
- T/C [10]: 90 % of control
- T/C [11]: 88 % of control
- T/C [12]: 90 % of control

SMILES: C/C=C/C1OC(O)(C(C)C(O)C(C)C2OC(=O)/C(OC)=C/C(C)=C/C(C)C(O)C(CC)C(O)C(C)C/C(C)=C/C=C/C2OC)CC(OC(=O)/C=C/C(=O)NC2=C(O)CCC2=O)C1C (centres undefined)
- T/C (dose: 0.75 mg/kg/injection, schedule: Q01DX005 (ip), vehicle: Klucel (hydroxypropylcellulose) (HPC)): 118 % of control
- T/C (dose: 1.5 mg/kg/injection, schedule: Q01DX005 (ip), vehicle: Klucel (hydroxypropylcellulose) (HPC)): 110 % of control
- T/C (dose: 3.0 mg/kg/injection, schedule: Q01DX005 (ip), vehicle: Klucel (hydroxypropylcellulose) (HPC)): 108 % of control
- T/C (dose: 6.0 mg/kg/injection, schedule: Q01DX005 (ip), vehicle: Klucel (hydroxypropylcellulose) (HPC)): 110 % of control

SMILES: CCCCN1COCO[C@H]2CCC[C@@H]21
- T/C (dose: 100.0 mg/kg/injection, schedule: Q04DX002 (ip), vehicle: Klucel (hydroxypropylcellulose) (HPC)): 118 % of control
- T/C (dose: 200.0 mg/kg/injection, schedule: Q04DX002 (ip), vehicle: Klucel (hydroxypropylcellulose) (HPC)): 122 % of control

SMILES: NC(=O)c1ccc(Cl)cc1C(N)=O
- T/C [14]: 99 % of control
- T/C [15]: 105 % of control
- T/C (dose: 200.0 mg/kg/injection, schedule: Q01DX005 (ip), vehicle: Klucel (hydroxypropylcellulose) (HPC)): 99 % of control

SMILES: COc1ccc2c(c1O)-c1c(O)c(OC)cc3c1[C@H](C2)[N+](C)(C)CC3
- T/C (dose: 12.5 mg/kg/injection, schedule: Q04DX003 (ip), vehicle: saline): 109 % of control
- T/C (dose: 25.0 mg/kg/injection, schedule: Q04DX003 (ip), vehicle: saline): 114 % of control
- T/C [1]: 98 % of control and 109 % of control
- T/C [2]: 113 % of control

SMILES: CCOC(=O)c1ccc(NC(=O)CSc2nc3ccccc3o2)cc1
- T/C [16]: 114 % of control
- T/C [17]: 93 % of control

SMILES: O=C(Nc1ccccc1C(=O)O)c1cc([N+](=O)[O-])cc([N+](=O)[O-])c1
- T/C (dose: 25.0 mg/kg/injection, schedule: Q01DX009 (ip), vehicle: saline with Tween-80): 114 % of control
- T/C [4]: 113 % of control
- T/C [5]: 109 % of control

SMILES: CC(=O)NCCSSCCCCSSCCNC(C)=O
- T/C [14]: 112 % of control
- T/C [15]: 112 % of control

SMILES: CCC1=C2C(=O)c3ccccc3C2=C(C)S(=O)(=O)O1
- T/C (dose: 50.0 mg/kg/injection, schedule: Q04DX003 (ip), vehicle: saline with Tween-80): 109 % of control
- T/C [13]: 86 % of control

SMILES: CCCCC1(C#Cc2ccccc2)Sc2ccccc2N1C (centres undefined)
- T/C [18]: 98 % of control
- T/C [19]: 101 % of control
- T/C [20]: 107 % of control

SMILES: O=C(O)CC1C=CC2C=CC1C=C2 (centres undefined)
- T/C [7]: 101 % of control
- T/C [8]: 100 % of control
- T/C [9]: 99 % of control

SMILES: COc1ccc(NC2=CC(=S)NC(C)(C)C2)cc1
- T/C [16]: 92 % of control
- T/C [17]: 104 % of control
- T/C (dose: 200.0 mg/kg/injection, schedule: Q01DX009 (ip), vehicle: saline): 104 % of control

SMILES: O=c1c(SSc2coc3ccccc3c2=O)coc2ccccc12
- T/C [18]: 116 % of control
- T/C [19]: 102 % of control
- T/C [20]: 106 % of control

SMILES: CCCCCCCC#CC(=O)OC
- T/C [4]: 95 % of control
- T/C [5]: 101 % of control
- T/C [6]: 101 % of control

SMILES: Cc1nccc2nnc(C)n12
- T/C [2]: 98 % of control
- T/C [3]: 98 % of control
- T/C (dose: 400.0 mg/kg/injection, schedule: Q04DX003 (ip), vehicle: saline): 95 % of control
